Results taken from patent US8969554B2, “6-acyl-1,2,4-triazine-3,5-dione derivative and herbicides” (Kumiai Chemical Industry Co., Ltd., priority 2010, dated 2015).

Tests used:
Type in all cases: in vivo
Design in all cases: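 index 0 to 10 in 10% steps of herbicidal effect with 10 meaning complete death and 0 below 10%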
Indian millet [1] = experiment: Herbicidal activity by field foliage treatment (Test example 3); details: 1000 g effective component per hectare, day 14 after the treatment
Method: (§1) [table] Test for Determining Herbicidal Activity by Field Foliage Treatment A 80 cm^2 wide plastic pot was filled with a field soil and seeds of each of Indian millet and A. retroflexus were sowed and then incubated for 2 weeks in a green house. The wettable powder produced with reference to the Formulation example 1 was diluted water, and applied from the air to entire body of the plant as foliage treatment by using a small sprayer in an amount of 1000 liters per hectare so that the effective component is 1000 g per hectare. After that, the plants were cultivated in a greenhouse, and on day 14 after the treatment, evaluation was made by the criteria described in Table 72 for determining the herbicidal effects.

A. retroflexus [2] = experiment: as above; details: 1000 g effective component per hectare, day 14 after the treatment
Method: as §1

Indian millet [3] = experiment: Herbicidal activity by field soil treatment (Test example 2); details: 1000 g effective component per hectare, day 21 after the treatment
Method: (§2) [table] Test for Determining Herbicidal Activity by Field Soil Treatment A 80 cm^2 wide plastic pot was filled with a field soil and seeds of each of Echinochloa crus-galli, foxtail, Indian millet, and A. retroflexus were sowed and then covered with soil. The wettable powder produced with reference to the Formulation example 1 was diluted water, and applied on the soil surface by using a small sprayer in an amount of 1000 liters per hectare so that the effective component is 1000 g per hectare. After that, the plants were cultivated in a greenhouse, and on day 21 after the treatment, evaluation was made by the criteria described in Table 72 for determining the herbicidal effects.

A. retroflexus [4] = experiment: as above; details: 1000 g effective component per hectare, day 21 after the treatment
Method: as §2

Echinochloa crus-galli [5] = experiment: as above; details: 1000 g effective component per hectare, day 21 after the treatment
Method: as §2

Echinochloa crus-galli [6] = experiment: Herbicidal activity by field foliage treatment (Test example 3); details: 1000 g effective component per hectare, day 14 after the treatment
Method: as §1, with “Test example 3” for “[table]”

Monochoria vaginalis = experiment: Herbicidal activity by paddy field soil treatment (Test Example 1); details: 1000 g of effective component per hectare, evaluated on day 21 after the treatment, criteria of Table 72
Method: (§3) Test for Determining Herbicidal Activity by Paddy Field Soil Treatment A 100 cm^2 wide plastic pot was filled with a paddy field soil and, after watering and shuffling, seeds of each of Echinochloa oryzicola, Monochoria vaginalis, and Scirpus juncoides Rocxb. were sowed and watered to a depth of 3 cm. On the next day, the wettable powder obtained in view of Formulation example 1 was diluted with water and applied on water surface. The application amount was 1000 g of effective component per hectare. After that, the plants were cultivated in a greenhouse, and on day 21 after the treatment, evaluation was made by the criteria of Table 72 for determining the herbicidal effects. [table]

Echinochloa oryzicola = experiment: as above; details: 1000 g of effective component per hectare, evaluated on day 21 after the treatment, criteria of Table 72
Method: as §3

Scirpus juncoides Rocxb. = experiment: as above; details: applied on water surface, 1000 g of effective component per hectare, day 21 after the treatment
Method: as §3

| SMILES | herbicidal effect index, Abutilon theophrasti (Indian millet [1]) | herbicidal effect index, Amaranthus retroflexus (A. retroflexus [2]) | herbicidal effect index, Abutilon theophrasti (Indian millet [3]) | herbicidal effect index, Amaranthus retroflexus (A. retroflexus [4]) | herbicidal effect index, Echinochloa crus-galli (Echinochloa crus-galli [5]) | herbicidal effect index, Echinochloa crus-galli (Echinochloa crus-galli [6]) | Herbicidal effects index number, Monochoria vaginalis (Monochoria vaginalis) | Herbicidal effects index number, Echinochloa oryzicola (Echinochloa oryzicola) | herbicidal effect index, S. juncoides Rocxb. (Scirpus juncoides Rocxb.) |
| --- | --- | --- | --- | --- | --- | --- | --- | --- | --- |
| Cc1cccc(-n2c(=O)c(C(=O)C3=C(O)CCCC3=O)nn(C)c2=O)n1 [I-279] | 10 | 10 | 10 | 10 | 7 | 9 | 8 | 8 | 10 |
| COc1cccc(-n2c(=O)c(C(=O)C3=C(O)CCCC3=O)nn(C)c2=O)c1 [I-61] | 10 | 10 | 10 | 10 | 8 | 9 | 10 | 8 | 10 |
| CN(c1ccc(F)cc1)n1c(=O)c(C(=O)O)nn(C)c1=O [V-370] | 9 | 10 | 10 | 10 | 7 | 7 | 10 | 10 | 10 |
| CCn1nc(C(=O)C2=C(O)CCCC2=O)c(=O)n(-c2ccccc2)c1=O [I-259] | 10 | 10 | 8 | 10 | 10 | 10 | 10 | 10 | 10 |
| Cc1cc(C)cc(-n2c(=O)c(C(=O)C3=C(O)CCCC3=O)nn(C)c2=O)c1 [I-88] | 9 | 10 | 10 | 10 | 8 | 8 | 10 | 10 | 10 |
| CCON=C(C)Cn1c(=O)c(C(=O)O)nn(C)c1=O [V-371] | 9 | 10 | 10 | 10 | 9 | 8 | 10 | 10 | 9 |
| Cn1nc(C(=O)C2=C(O)CCCC2=O)c(=O)n(-c2ccc(C(F)(F)F)cc2)c1=O [I-65] | 10 | 10 | 10 | 10 | 10 | 8 | 10 | 10 | 10 |
| Cc1cccc(F)c1-n1c(=O)c(C(=O)C2=C(O)CCCC2=O)nn(C)c1=O [I-110] | 9 | 9 | 10 | 10 | 7 | 9 | 10 | 10 | 10 |
| Cn1nc(C(=O)C2=C(O)CCCC2=O)c(=O)n(-c2ccc(Cl)cc2)c1=O [I-53] | 10 | 10 | 10 | 10 | 8 | 8 | 7 | 10 | 10 |
| COc1cc(Cl)cc(-n2c(=O)c(C(=O)C3=C(O)CCCC3=O)nn(C)c2=O)c1 [I-120] | 9 | 10 | 9 | 10 | 8 | 9 | 10 | 8 | 10 |
| CCON=C(C)Cn1c(=O)c(C(=O)C2=C(O)CCCC2=O)nn(C)c1=O [I-478] | 9 | 10 | 10 | 10 | 9 | 8 | 10 | 10 | 9 |
| O=C1CCCC(O)=C1C(=O)c1nn(CC(F)(F)F)c(=O)n(-c2ccccc2)c1=O [I-477] | 9 | 10 | 10 | 10 | 9 | 9 | 10 | 10 | 10 |
| CC(C)Cn1c(=O)c(C(=O)C2=C(O)CCCC2=O)nn(-c2ccccn2)c1=O [I-307] | 10 | 9 | 9 | 10 | 7 | – | 9 | 8 | 8 |
| Cc1ccc(-n2c(=O)c(C(=O)C3=C(O)CCCC3=O)nn(C)c2=O)nc1 [I-182] | 9 | 9 | 10 | 10 | 7 | 8 | 8 | – | 9 |
| Cc1cnc(-n2c(=O)c(C(=O)C3=C(O)CCCC3=O)nn(C)c2=O)cn1 [I-292] | 10 | 10 | 9 | – | 7 | 8 | 10 | 10 | 10 |
| Cn1nc(C(=O)C2=C(O)CCCC2=O)c(=O)n(-c2ccc(F)cc2)c1=S [I-480] | 10 | 10 | 10 | 10 | 8 | 9 | – | 10 | 10 |
